Where “and” joins values, the source holds several entries; their conditions need not be identical. Equal values may be shown once. Results filed as inconclusive are left out.

In this assay the test system is MX-1 breast xenograft, nude mice, tumor weight T/C. Description: NCI In Vivo Anticancer Drug Screen. Data for tumor model Human Mammary Carcinoma MX-1 Xenograft (intrarenal inoculation) in NU/NU Swiss (nude) mice. Particulars: endpoint: mean tumor weight change, higher = larger tumour. A digest of the protocol:
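Activity is given as a ratio, with each measurement in the compound-treated arm divided by the matching measurement in vehicle-dosed controls. Tumour size or survival serves as the measured parameter.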
For orientation: Xenograft models place foreign cells or tissue in a host animal.

Where [1] appears, read: dose: 150.0 mg/kg/injection, schedule: Q04DX003 (sc), vehicle: Klucel (hydroxypropylcellulose) (HPC).
Setting [2] is: dose: 300.0 mg/kg/injection, schedule: Q04DX003 (sc), vehicle: Klucel (hydroxypropylcellulose) (HPC).
[3] abbreviates: dose: 600.0 mg/kg/injection, schedule: Q04DX003 (sc), vehicle: Klucel (hydroxypropylcellulose) (HPC).

`CC[C@](O)(C(=O)O)c1cc2n(c(=O)c1CO)Cc1cc3ccccc3nc1-2`: the T/C (dose: 8.0 mg/kg/injection, schedule: Q04DX003 (sc), vehicle: saline) is 2 % of control; the T/C (dose: 16.0 mg/kg/injection, schedule: Q04DX003 (sc), vehicle: saline) is -92 % of control; the T/C (dose: 32.0 mg/kg/injection, schedule: Q04DX003 (sc), vehicle: saline) is -89 % of control; the T/C (dose: 64.0 mg/kg/injection, schedule: Q04DX003 (sc), vehicle: saline) is -100 % of control.
On to `C=CS(C=C)=NS(=O)(=O)c1ccc(C)cc1`, for which the T/C is, setting by setting: (dose: 18.75 mg/kg/injection, schedule: Q04DX003 (sc), vehicle: Klucel (hydroxypropylcellulose) (HPC)) 64 % of control; (dose: 37.5 mg/kg/injection, schedule: Q04DX003 (sc), vehicle: Klucel (hydroxypropylcellulose) (HPC)) 87 % of control.
In the case of `N=C(N)CCCCCCCCC(=N)N`, the T/C (dose: 18.75 mg/kg/injection, schedule: Q04DX003 (sc), vehicle: saline) is 124 % of control.
As to `CC(=O)[O][Pb]([O]C(C)=O)([c]1ccccc1)[c]1ccccc1`, the T/C (dose: 25.0 mg/kg/injection, schedule: Q01DX010 (sc), vehicle: Klucel (hydroxypropylcellulose) (HPC)) was 105 % of control; the T/C (dose: 50.0 mg/kg/injection, schedule: Q01DX010 (sc), vehicle: Klucel (hydroxypropylcellulose) (HPC)) is 167 % of control; the T/C (dose: 100.0 mg/kg/injection, schedule: Q01DX010 (sc), vehicle: Klucel (hydroxypropylcellulose) (HPC)) was 122 % of control; the T/C (dose: 800.0 mg/kg/injection, schedule: Q01DX010 (sc), vehicle: Klucel (hydroxypropylcellulose) (HPC)) was 51 % of control.
As to `CCN(C)N=Nc1ccc(C(N)=O)cc1`, the T/C is, setting by setting: under setting [1], 38 % of control; under setting [2], 21 % of control.
As for `COc1ccc2c(NCCCCCCNc3c4ccccc4nc4cc(OC)ccc34)c3ccccc3nc2c1`, the T/C (dose: 1.25 mg/kg/injection, schedule: Q01DX010 (sc), vehicle: lactic acid) is 81 % of control; the T/C (dose: 2.5 mg/kg/injection, schedule: Q01DX010 (sc), vehicle: lactic acid) is 165 % of control; the T/C (dose: 5.0 mg/kg/injection, schedule: Q01DX010 (sc), vehicle: lactic acid) is 79 % of control; the T/C (dose: 10.0 mg/kg/injection, schedule: Q01DX010 (sc), vehicle: lactic acid) is 92 % of control.
With `NCCc1cc(O)c(O)c(O)c1`, the T/C is 59 % of control (dose: 100.0 mg/kg/injection, schedule: Q04DX003 (sc), vehicle: saline); 150 % of control (dose: 200.0 mg/kg/injection, schedule: Q04DX003 (sc), vehicle: saline); 154 % of control (dose: 400.0 mg/kg/injection, schedule: Q04DX003 (sc), vehicle: saline); 72 % of control (dose: 800.0 mg/kg/injection, schedule: Q04DX003 (sc), vehicle: saline).
Consider `CN(C)c1ccc2c(SCC(=O)OCC(=O)[C@@]3(O)CC[C@H]4[C@@H]5CCC6=CC(=O)C=C[C@]6(C)[C@H]5C(=O)C[C@@]43C)c3ccc(N(C)C)cc3nc2c1`, for which the T/C was 53 % of control (dose: 75.0 mg/kg/injection, schedule: Q04DX003 (sc), vehicle: Klucel (hydroxypropylcellulose) (HPC)); 92 % of control under setting [1]; 39 % of control under setting [2]; 55 % of control under setting [3].
For `CC1=NN(c2cccc(S(=O)(=O)O)c2)C(=O)C1N=Nc1cc(Cl)cc(S(=O)(=O)O)c1O.CC1=NN(c2cccc(S(=O)(=O)O)c2)C(=O)C1N=Nc1cc(Cl)cc(S(=O)(=O)O)c1O.[Cr]` (stereo not drawn), the T/C (dose: 150.0 mg/kg/injection, schedule: Q04DX003 (ip), vehicle: saline) is 151 % of control; the T/C (dose: 300.0 mg/kg/injection, schedule: Q04DX003 (ip), vehicle: saline) was 94 % of control; the T/C (dose: 600.0 mg/kg/injection, schedule: Q04DX003 (ip), vehicle: saline) is 50 % of control.
Consider `COC1C(O)C(C)OC(OC2C(Oc3cccc4c(O)c5c(=O)oc6ccc(C)c7c(=O)oc(c34)c5c67)OC(C)C(O)C2O)C1O` (stereo not drawn), for which the T/C under setting [2] is 90 % of control; the T/C under setting [3] is 94 % of control; the T/C (dose: 1200.0 mg/kg/injection, schedule: Q04DX003 (sc), vehicle: Klucel (hydroxypropylcellulose) (HPC)) is 70 % of control; the T/C (dose: 2400.0 mg/kg/injection, schedule: Q04DX003 (sc), vehicle: Klucel (hydroxypropylcellulose) (HPC)) was 49 % of control.
`OCCN1CCN(CCCN2c3ccccc3Sc3ccc(C(F)(F)F)cc32)CC1`: the T/C by setting is: (dose: 30.0 mg/kg/injection, schedule: Q04DX003 (sc), vehicle: saline) 87 % of control; (dose: 60.0 mg/kg/injection, schedule: Q04DX003 (sc), vehicle: saline) 50 % of control and 71 % of control; (dose: 480.0 mg/kg/injection, schedule: Q04DX003 (sc), vehicle: saline) 36 % of control.
As for `COCC1OC2OC3C(COC)OC(OC4C(COC)OC(OC5C(COC)OC(OC6C(COC)OC(OC7C(COC)OC(OC8C(COC)OC(OC1C(O)C2O)C(O)C8O)C(O)C7O)C(O)C6O)C(O)C5O)C(O)C4O)C(O)C3O` (stereo not drawn) (tested in a mixture with another compound), the T/C by setting is: (dose: 100.0 mg/kg/injection, schedule: Q04DX003 (sc), vehicle: Klucel (hydroxypropylcellulose) (HPC)) 82 % of control; (dose: 200.0 mg/kg/injection, schedule: Q04DX003 (sc), vehicle: Klucel (hydroxypropylcellulose) (HPC)) 96 % of control; (dose: 400.0 mg/kg/injection, schedule: Q04DX003 (sc), vehicle: Klucel (hydroxypropylcellulose) (HPC)) 86 % of control; (dose: 800.0 mg/kg/injection, schedule: Q04DX003 (sc), vehicle: Klucel (hydroxypropylcellulose) (HPC)) 76 % of control.
`O=C1c2cccc3cc([N+](=O)[O-])cc(c23)C(=O)N1CCN1CCCC1`: the T/C (dose: 18.0 mg/kg/injection, schedule: Q04DX003 (sc), vehicle: saline with Tween-80) was 120 % of control; the T/C (dose: 36.0 mg/kg/injection, schedule: Q04DX003 (sc), vehicle: saline with Tween-80) is 96 % of control; the T/C (dose: 72.0 mg/kg/injection, schedule: Q04DX003 (sc), vehicle: saline with Tween-80) was 85 % of control.
For `NC(CNC(=O)CBr)C(=O)O` (stereo not drawn), the T/C reads like this: (dose: 37.5 mg/kg/injection, schedule: Q04DX003 (sc), vehicle: water) 53 % of control; (dose: 75.0 mg/kg/injection, schedule: Q04DX003 (sc), vehicle: water) 10 % of control and 17 % of control; (dose: 100.0 mg/kg/injection, schedule: Q04DX003 (sc), vehicle: water) 9 % of control; (dose: 150.0 mg/kg/injection, schedule: Q04DX003 (sc), vehicle: water) 8 % of control and 13 % of control.
`N#Cc1c(-c2ccc(F)cc2)c(-c2ccc(F)cc2)nn(CCO)c1=O`: the T/C was 101 % of control (dose: 100.0 mg/kg/injection, schedule: Q04DX003 (ip), vehicle: distilled water + Tween-80) and 80 % of control (dose: 200.0 mg/kg/injection, schedule: Q04DX003 (ip), vehicle: distilled water + Tween-80).
Consider `C[C@]12CC[C@@H]3c4ccc(OC(=O)Cc5ccc(N(CCCl)CCCl)cc5)cc4CC[C@H]3[C@@H]1CC[C@@H]2OC(=O)Cc1ccc(N(CCCl)CCCl)cc1`, for which the T/C (dose: 200.0 mg/kg/injection, schedule: Q04DX003 (sc), vehicle: saline with Tween-80) was 58 % of control; the T/C (dose: 400.0 mg/kg/injection, schedule: Q04DX003 (sc), vehicle: saline with Tween-80) was 50 % of control; the T/C (dose: 800.0 mg/kg/injection, schedule: Q04DX003 (sc), vehicle: saline with Tween-80) was 33 % of control; the T/C (dose: 1200.0 mg/kg/injection, schedule: Q04DX003 (sc), vehicle: saline with Tween-80) was 36 % of control; the T/C (dose: 1600.0 mg/kg/injection, schedule: Q04DX003 (sc), vehicle: saline with Tween-80) was 7 % of control and 26 % of control; the T/C (dose: 2000.0 mg/kg/injection, schedule: Q04DX003 (sc), vehicle: saline with Tween-80) is 21 % of control. In addition, the T/C (dose: 2400.0 mg/kg/injection, schedule: Q04DX003 (sc), vehicle: saline with Tween-80) was 35 % of control.
Take `CC(=O)c1cccc(NC2C(N)C(NC(=O)N(C)C)(C(C)O)C(C)(O)C2(O)COC(=O)c2c(C)cccc2O)c1` (stereo not drawn): the T/C is 62 % of control (dose: 6.25 mg/kg/injection, schedule: Q04DX003 (ip), vehicle: suspension in saline); 85 % of control (dose: 12.5 mg/kg/injection, schedule: Q04DX003 (ip), vehicle: suspension in saline); 34 % of control (dose: 25.0 mg/kg/injection, schedule: Q04DX003 (ip), vehicle: suspension in saline).

These data come from PubChem BioAssay AID296 (DTP/NCI, 2004).
